# Reference: patent US6054435A, “6-O-substituted macrolides having antibacterial activity” (priority 1999, dated 2000)
# Key:
# Assay in all cases: in vitro antibacterial activity (MIC), agar dilution
# Format in all cases: cell-based
# Candida albicans CCH 442 = details: organism code TT; BHI agar, 35-37° C., 20 to 24 hours; unit assumed
# Procedure, shortened: (§1)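 Steps: dilute compound serially into BHI agar (twelve plates); spot inocula diluted 1:100, or 1:10 for slow-growing Streptococcus; incubate; inspect visually. MIC recorded as lowest level with no growth, slight haze or sparse isolated colonies.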
# [1] = system: Enterococcus faecium ATCC 8043; details: organism code II; BHI agar, 35-37° C., 20 to 24 hours; unit assumed
# Procedure, shortened: as §1
# Escherichia coli DC-2 = details: organism code SS; BHI agar, 35-37° C., 20 to 24 hours; unit assumed
# Procedure, shortened: as §1
# Escherichia coli JUHL = details: organism code QQ; BHI agar, 35-37° C., 20 to 24 hours; unit assumed
# Procedure, shortened: as §1
# Escherichia coli SS = details: organism code RR; BHI agar, 35-37° C., 20 to 24 hours; unit assumed
# Procedure, shortened: as §1
# [2] = system: Haemophilis Influenzae DILL AMP R; details: organism code WW; BHI agar, 35-37° C., 20 to 24 hours; unit assumed
# Procedure, shortened: as §1
# [3] = system: Micrococcus luteus ATCC 4698; details: organism code PP; BHI agar, 35-37° C., 20 to 24 hours; unit assumed
# Procedure, shortened: (§2)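 Endpoint: lowest concentration with no growth, slight haze or sparsely isolated colonies at the inoculum spot, judged against a compound-free BHI control. Strains were replicator-inoculated at 1:100 (1:10 for Streptococcus and other slow growers).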
# [4] = system: Micrococcus luteus ATCC 9341; details: organism code OO; BHI agar, 35-37° C., 20 to 24 hours; unit assumed
# Procedure, shortened: as §2
# [5] = system: Mycobacterium smegmatis ATCC 114; details: organism code UU; BHI agar, 35-37° C., 20 to 24 hours; unit assumed
# Procedure, shortened: as §1
# [6] = system: Nocardia Asteroides ATCC9970; details: organism code VV; BHI agar, 35-37° C., 20 to 24 hours; unit assumed
# Procedure, shortened: as §1
# [7] = system: Staphylococcus aureus 1775; details: organism code GG; BHI agar, 35-37° C., 20 to 24 hours; unit assumed
# Procedure, shortened: as §1
# [8] = system: Staphylococcus aureus A-5278; details: organism code CC; BHI agar, 35-37° C., 20 to 24 hours; unit assumed
# Procedure, shortened: as §1
# [9] = system: Staphylococcus aureus A5177; details: organism code BB; BHI agar, 35-37° C., 20 to 24 hours; unit assumed
# Procedure, shortened: as §1
# [10] = system: Staphylococcus aureus ATCC 6538P; details: organism code AA; BHI agar, 35-37° C., 20 to 24 hours; unit assumed
# Procedure, shortened: as §1
# [11] = system: Staphylococcus aureus CMX 553; details: organism code FF; BHI agar, 35-37° C., 20 to 24 hours; unit assumed
# Procedure, shortened: as §1
# [12] = system: Staphylococcus aureus CMX 642A; details: organism code DD; BHI agar, 35-37° C., 20 to 24 hours; unit assumed
# Procedure, shortened: as §1
# [13] = system: Staphylococcus aureus NCTC10649M; details: organism code EE; BHI agar, 35-37° C., 20 to 24 hours; unit assumed
# Procedure, shortened: as §1
# [14] = system: Staphylococcus epidermidis 3519; details: organism code HH; BHI agar, 35-37° C., 20 to 24 hours; unit assumed
# Procedure, shortened: as §1
# [15] = system: Streptococcus Pneumonia 5649; details: organism code ZZA; BHI agar, 35-37° C., 20 to 24 hours; unit assumed
# Procedure, shortened: as §1
# [16] = system: Streptococcus Pneumonia 5979; details: organism code ZZ; BHI agar, 35-37° C., 20 to 24 hours; unit assumed
# Procedure, shortened: as §1
# [17] = system: Streptococcus Pneumonia ATCC6303; details: organism code XX; BHI agar, 35-37° C., 20 to 24 hours; unit assumed
# Procedure, shortened: as §1
# [18] = system: Streptococcus Pneumonia GYR 1171; details: organism code YY; BHI agar, 35-37° C., 20 to 24 hours; unit assumed
# Procedure, shortened: as §1
# [19] = system: Streptococcus agalactiae CMX 508; details: organism code KK; BHI agar, 35-37° C., 20 to 24 hours; unit assumed
# Procedure, shortened: as §1
# [20] = system: Streptococcus bovis A-5169; details: organism code JJ; BHI agar, 35-37° C., 20 to 24 hours; unit assumed
# Procedure, shortened: as §1
# [21] = system: Streptococcus pyogenes 930; details: organism code MM; BHI agar, 35-37° C., 20 to 24 hours; unit assumed
# Procedure, shortened: as §1
# [22] = system: Streptococcus pyogenes EES61; details: organism code LL; BHI agar, 35-37° C., 20 to 24 hours; unit assumed
# Procedure, shortened: as §1
# [23] = system: Streptococcus pyogenes PIU 2548; details: organism code NN; BHI agar, 35-37° C., 20 to 24 hours; unit assumed
# Procedure, shortened: as §1
Compound,MIC (Candida albicans CCH 442),MIC [1],MIC (Escherichia coli DC-2),MIC (Escherichia coli JUHL),MIC (Escherichia coli SS),MIC [2],MIC [3],MIC [4],MIC [5],MIC [6],MIC [7],MIC [8],MIC [9],MIC [10],MIC [11],MIC [12],MIC [13],MIC [14],MIC [15],MIC [16],other results
CC[C@H]1OC(=O)[C@H](C)C(=O)[C@H](C)[C@@H](O[C@@H]2O[C@H](C)C[C@H](N(C)C)[C@H]2O)[C@](C)(OC/C=C/c2ccc(-c3cnccn3)s2)C[C@@H](C)C(=O)[C@H](C)[C@H]2NC(=O)O[C@@]21C [Example 62],> 100 µg/mL,0.02 µg/mL,25 µg/mL,50 µg/mL,0.2 µg/mL,2 µg/mL,0.05 µg/mL,≤ 0.005 µg/mL,0.78 µg/mL,≤ 0.005 µg/mL,> 100 µg/mL,> 100 µg/mL,0.05 µg/mL,0.05 µg/mL,0.02 µg/mL,0.05 µg/mL,0.02 µg/mL,0.05 µg/mL,0.03 µg/mL,2 µg/mL,MIC [17]: ≤ 0.004 µg/mL; MIC [18]: ≤ 0.004 µg/mL; MIC [19]: ≤ 5 ng/mL; MIC [20]: ≤ 0.005 µg/mL; MIC [21]: 3.1 µg/mL; MIC [22]: ≤ 0.005 µg/mL; MIC [23]: 0.1 µg/mL
CC[C@H]1OC(=O)[C@H](C)C(=O)[C@H](C)[C@@H](O[C@@H]2O[C@H](C)C[C@H](N(C)C)[C@H]2O)[C@](C)(OCC#Cc2ccc(-c3ccco3)s2)C[C@@H](C)C(=O)[C@H](C)[C@H]2NC(=O)O[C@@]21C [Example 23],> 100 µg/mL,0.02 µg/mL,50 µg/mL,50 µg/mL,0.39 µg/mL,2 µg/mL,0.05 µg/mL,0.01 µg/mL,0.78 µg/mL,0.02 µg/mL,> 100 µg/mL,> 100 µg/mL,0.05 µg/mL,0.05 µg/mL,0.05 µg/mL,0.05 µg/mL,0.05 µg/mL,0.05 µg/mL,0.25 µg/mL,8 µg/mL,MIC [17]: 0.03 µg/mL; MIC [18]: 0.03 µg/mL; MIC [19]: ≤ 5 ng/mL; MIC [20]: 0.01 µg/mL; MIC [21]: 6.2 µg/mL; MIC [22]: 0.1 µg/mL; MIC [23]: 0.1 µg/mL
CC[C@H]1OC(=O)[C@H](C)C(=O)[C@H](C)[C@@H](O[C@@H]2O[C@H](C)C[C@H](N(C)C)[C@H]2O)[C@](C)(OC/C=C/c2ncc(-c3cccnc3)s2)C[C@@H](C)C(=O)[C@H](C)[C@H]2NC(=O)O[C@@]21C [Example 54],> 100 µg/mL,0.02 µg/mL,25 µg/mL,1.56 µg/mL,0.2 µg/mL,2 µg/mL,0.05 µg/mL,0.01 µg/mL,3.1 µg/mL,0.01 µg/mL,> 100 µg/mL,> 100 µg/mL,0.05 µg/mL,0.05 µg/mL,0.05 µg/mL,0.05 µg/mL,0.1 µg/mL,0.05 µg/mL,0.25 µg/mL,4 µg/mL,MIC [17]: 0.03 µg/mL; MIC [18]: 0.03 µg/mL; MIC [19]: ≤ 5 ng/mL; MIC [20]: ≤ 0.005 µg/mL; MIC [21]: 100 µg/mL; MIC [22]: ≤ 0.005 µg/mL; MIC [23]: 0.1 µg/mL
CC[C@H]1OC(=O)[C@H](C)C(=O)[C@H](C)[C@@H](O[C@@H]2O[C@H](C)C[C@H](N(C)C)[C@H]2O)[C@](C)(OC/C=C/c2ccc(-c3nccs3)s2)C[C@@H](C)C(=O)[C@H](C)[C@H]2NC(=O)O[C@@]21C [Example 63],> 100 µg/mL,0.05 µg/mL,100 µg/mL,100 µg/mL,0.1 µg/mL,4 µg/mL,0.1 µg/mL,0.05 µg/mL,0.39 µg/mL,0.05 µg/mL,> 100 µg/mL,> 100 µg/mL,0.1 µg/mL,0.1 µg/mL,0.1 µg/mL,0.1 µg/mL,0.1 µg/mL,0.2 µg/mL,0.25 µg/mL,8 µg/mL,MIC [17]: 0.008 µg/mL; MIC [18]: 0.008 µg/mL; MIC [19]: 50 ng/mL; MIC [20]: 0.05 µg/mL; MIC [21]: 6.2 µg/mL; MIC [22]: 0.05 µg/mL; MIC [23]: 0.2 µg/mL
